Experimental data reported in patent EP4722212A1, “NOVEL COMPOUND FOR INHIBITING PROTEIN KINASES AND PHARMACEUTICAL COMPOSITION COMPRISING SAME” (Magicbullettherapeutics Co., Ltd., priority 2023, dated 2024).

Tests used:
ACK1 = target: T1, ACK1 (Homo sapiens, UniProt Q07912); assay: Enzyme activity inhibition (Reaction Biology); assay type: biochemical
T1 construct: purchased Reaction Biology (RBC)
Description: (§1) [* <10 nM: A, <100 nM: B, >100 nM: C]. [Table 7]

BMX = target: T2, BMX (Homo sapiens, UniProt P51813); assay: Enzyme activity inhibition (Reaction Biology); assay type: biochemical
T2 construct: purchased Reaction Biology (RBC)
T2 sequence (P51813 1-675): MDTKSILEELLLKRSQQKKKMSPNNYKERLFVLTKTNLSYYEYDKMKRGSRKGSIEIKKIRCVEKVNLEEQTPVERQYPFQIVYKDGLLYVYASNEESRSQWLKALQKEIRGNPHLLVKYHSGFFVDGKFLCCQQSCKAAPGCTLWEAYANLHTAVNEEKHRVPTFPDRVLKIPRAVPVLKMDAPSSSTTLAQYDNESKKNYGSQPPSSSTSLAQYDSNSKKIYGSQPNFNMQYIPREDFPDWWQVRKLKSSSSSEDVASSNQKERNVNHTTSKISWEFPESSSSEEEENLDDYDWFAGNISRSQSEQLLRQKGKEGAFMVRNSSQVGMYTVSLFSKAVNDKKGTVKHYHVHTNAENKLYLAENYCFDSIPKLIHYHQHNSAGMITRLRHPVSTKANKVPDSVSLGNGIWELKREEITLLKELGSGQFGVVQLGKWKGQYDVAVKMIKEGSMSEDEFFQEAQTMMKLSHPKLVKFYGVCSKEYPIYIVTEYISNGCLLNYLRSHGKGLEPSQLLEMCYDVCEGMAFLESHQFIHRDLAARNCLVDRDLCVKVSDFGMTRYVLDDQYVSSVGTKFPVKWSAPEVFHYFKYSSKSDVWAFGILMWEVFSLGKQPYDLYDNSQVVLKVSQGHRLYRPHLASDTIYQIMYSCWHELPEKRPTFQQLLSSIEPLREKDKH
Description: as §1

Src = target: T3, Src (Homo sapiens, UniProt P12931); assay: Enzyme activity inhibition (Reaction Biology); assay type: biochemical
T3 construct: purchased Reaction Biology (RBC)
T3 sequence (P12931 whole entry): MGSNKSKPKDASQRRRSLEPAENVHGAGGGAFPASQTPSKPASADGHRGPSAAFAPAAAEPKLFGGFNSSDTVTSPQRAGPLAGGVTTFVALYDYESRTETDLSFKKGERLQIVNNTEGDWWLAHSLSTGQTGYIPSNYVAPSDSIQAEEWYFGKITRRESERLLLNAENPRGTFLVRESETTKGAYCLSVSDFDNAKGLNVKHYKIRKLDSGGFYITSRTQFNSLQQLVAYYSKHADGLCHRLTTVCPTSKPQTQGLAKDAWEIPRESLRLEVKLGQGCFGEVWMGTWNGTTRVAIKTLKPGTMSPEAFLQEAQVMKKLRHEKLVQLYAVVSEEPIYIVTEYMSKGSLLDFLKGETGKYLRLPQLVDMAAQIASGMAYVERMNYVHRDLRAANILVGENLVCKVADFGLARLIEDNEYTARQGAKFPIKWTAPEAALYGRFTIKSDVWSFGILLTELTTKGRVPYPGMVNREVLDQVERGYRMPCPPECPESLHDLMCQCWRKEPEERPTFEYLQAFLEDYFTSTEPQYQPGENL
Description: as §1

SW620 = assay: Cell line inhibition analysis (CCK-8, 72 h); assay type: cell-based; conditions: Homo sapiens, SW-620; read-out: Cell growth inhibition GI50 SW620
Description: (§2) C4-2B and 22Rv1 cells were purchased from ATCC and cultured according to the manufacturer's instructions. The cells were seeded in 96-well plates at 7×10^3cells/100 µl/well and allowed to attach for one day. After removing the culture medium, 90 µl/well of fresh culture medium was added, followed by addition of 10 µl/well of culture medium containing compounds at nine concentrations (0.076-500 µM) serially diluted 3-fold and DMSO control to achieve final concentrations of 0-50 µM, and then cultured for 72 hours in a 37 °C CO2 incubator. Cell proliferation after 72 hours was assessed by adding 10 µl/well of CCK-8 solution, orbital shaking for 30 seconds, then incubating at 37 °C CO2 incubator for 2 hours and measuring absorbance at 450 nm using a microplate reader. The measured absorbance values were corrected by subtracting the absorbance of wells containing only culture medium and CCK-8 solution, and GI50 values were calculated using GraphPad Prism 8 software.
(§3) Meanwhile, in a separate 96-well plate, cells were seeded at 7 × 10^3 cells/100 µl/well, allowed to attach for one day, CCK-8 solution was added, and absorbance was measured to establish the 'Growth (%) = 0' value.
(§4) Furthermore, experiments were conducted on A172, A549, HCI-H460, AsPC-1, MIA-Paca-2, DLD-1, HCT-116, HT-29, SW480, SW620, MDA-MB-231, and SKOV3 cell lines using the same method, with results shown in Tables 9 and 10 below [* <1 µM: A, <5 µM: B, <10 µM: C, >10 µM: D].

DLD-1 = assay: Cell line inhibition analysis (CCK-8, 72 h); assay type: cell-based; conditions: Homo sapiens, read-out: Cell growth inhibition GI50 DLD-1
Description: as §2, §3, §4

A172 = assay: Cell line inhibition analysis (CCK-8, 72 h); assay type: cell-based; conditions: Homo sapiens, A 172; read-out: Cell growth inhibition GI50 A172
Description: as §2, §3, §4

SW480 = assay: Cell line inhibition analysis (CCK-8, 72 h); assay type: cell-based; conditions: Homo sapiens, read-out: Cell growth inhibition GI50 SW480
Description: as §2, §3, §4

MIA-Paca-2 = assay: Cell line inhibition analysis (CCK-8, 72 h); assay type: cell-based; conditions: Homo sapiens, read-out: Cell growth inhibition GI50 MIA-Paca-2
Description: as §2, §3, §4

HT-29 = assay: Cell line inhibition analysis (CCK-8, 72 h); assay type: cell-based; conditions: Homo sapiens, read-out: Cell growth inhibition GI50 HT-29
Description: as §2, §3, §4

HCT-116 = assay: Cell line inhibition analysis (CCK-8, 72 h); assay type: cell-based; conditions: Homo sapiens, read-out: Cell growth inhibition GI50 HCT-116
Description: as §2, §3, §4

MDA-MB-231 = assay: Cell line inhibition analysis (CCK-8, 72 h); assay type: cell-based; conditions: Homo sapiens, read-out: Cell growth inhibition GI50 MDA-MB-231
Description: as §2, §3, §4

AsPC-1 = assay: Cell line inhibition analysis (CCK-8, 72 h); assay type: cell-based; conditions: Homo sapiens, ASPC1; read-out: Cell growth inhibition GI50 AsPC-1
Description: as §2, §3, §4

SKOV3 = assay: Cell line inhibition analysis (CCK-8, 72 h); assay type: cell-based; conditions: Homo sapiens, SK-OV-3; read-out: Cell growth inhibition GI50 SKOV3
Description: as §2, §3, §4

HCI-H460 = assay: Cell line inhibition analysis (CCK-8, 72 h); assay type: cell-based; conditions: read-out: Cell growth inhibition GI50 HCI-H460
Description: as §2, §3, §4

A549 = assay: Cell line inhibition analysis (CCK-8, 72 h); assay type: cell-based; conditions: Homo sapiens, read-out: Cell growth inhibition GI50 A549
Description: as §2, §3, §4

TRKA = TRKA (Homo sapiens, UniProt P04629); assay: Kinase panel; assay type: biochemical; conditions: read-out: residual enzyme activity
Sequence of TRKA (P04629 33-796, species assumed): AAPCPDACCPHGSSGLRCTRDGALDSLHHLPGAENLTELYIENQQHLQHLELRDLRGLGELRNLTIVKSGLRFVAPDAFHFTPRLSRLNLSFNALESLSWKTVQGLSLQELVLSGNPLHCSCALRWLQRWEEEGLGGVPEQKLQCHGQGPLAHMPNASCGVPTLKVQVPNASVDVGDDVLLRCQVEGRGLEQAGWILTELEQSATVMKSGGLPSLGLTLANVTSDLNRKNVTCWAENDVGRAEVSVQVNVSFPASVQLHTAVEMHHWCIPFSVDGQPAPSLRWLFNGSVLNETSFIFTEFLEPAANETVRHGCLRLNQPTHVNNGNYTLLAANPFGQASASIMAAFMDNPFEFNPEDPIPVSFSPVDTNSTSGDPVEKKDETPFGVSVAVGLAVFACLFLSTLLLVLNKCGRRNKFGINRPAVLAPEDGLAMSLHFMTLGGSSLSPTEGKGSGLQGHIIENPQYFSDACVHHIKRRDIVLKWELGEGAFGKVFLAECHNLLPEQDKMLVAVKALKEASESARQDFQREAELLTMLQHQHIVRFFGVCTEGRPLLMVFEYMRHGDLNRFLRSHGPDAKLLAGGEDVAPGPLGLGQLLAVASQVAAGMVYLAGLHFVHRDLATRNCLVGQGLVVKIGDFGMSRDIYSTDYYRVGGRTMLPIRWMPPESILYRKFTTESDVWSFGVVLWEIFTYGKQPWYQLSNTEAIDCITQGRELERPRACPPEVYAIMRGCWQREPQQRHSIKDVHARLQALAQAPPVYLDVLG
Description: (§5) To measure the inhibitory activity of protein kinases against the compounds of the present invention, a biochemical assay was performed using a full kinase panel. The inhibitory efficacy of kinases was measured when Example compounds 8 and 51 were treated at a single concentration of 1 µM, and residual enzyme activity values were calculated. Kinases were identified when the calculated residual enzyme activity values were 40% or less, i.e., inhibited by 60% or more.

STK25/YSK1 = STK25/YSK1 (Homo sapiens, UniProt O00506); assay: Kinase panel; assay type: biochemical; conditions: STK25/YSK1, 1 µM; read-out: residual enzyme activity
Sequence of STK25/YSK1 (O00506 whole entry): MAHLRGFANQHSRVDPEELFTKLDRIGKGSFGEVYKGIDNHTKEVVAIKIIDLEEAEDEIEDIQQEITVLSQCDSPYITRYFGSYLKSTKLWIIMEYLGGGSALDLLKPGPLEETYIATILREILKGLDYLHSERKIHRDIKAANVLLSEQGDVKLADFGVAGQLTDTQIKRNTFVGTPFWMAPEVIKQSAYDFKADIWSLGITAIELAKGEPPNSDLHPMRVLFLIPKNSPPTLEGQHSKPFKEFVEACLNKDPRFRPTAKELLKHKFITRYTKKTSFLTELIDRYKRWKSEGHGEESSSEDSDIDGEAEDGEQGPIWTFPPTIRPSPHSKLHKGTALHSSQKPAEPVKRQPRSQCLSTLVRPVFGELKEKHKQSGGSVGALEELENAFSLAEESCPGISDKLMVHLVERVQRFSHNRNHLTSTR
Description: as §5

RSK3 = RSK3 (Homo sapiens, UniProt Q15349); assay: Kinase panel; assay type: biochemical; conditions: RSK3, 1 µM; read-out: residual enzyme activity
Description: as §5

LATS1 = LATS1 (Homo sapiens, UniProt O95835); assay: Kinase panel; assay type: biochemical; conditions: LATS1, 1 µM; read-out: residual enzyme activity
Sequence of LATS1 (O95835 whole entry, species assumed): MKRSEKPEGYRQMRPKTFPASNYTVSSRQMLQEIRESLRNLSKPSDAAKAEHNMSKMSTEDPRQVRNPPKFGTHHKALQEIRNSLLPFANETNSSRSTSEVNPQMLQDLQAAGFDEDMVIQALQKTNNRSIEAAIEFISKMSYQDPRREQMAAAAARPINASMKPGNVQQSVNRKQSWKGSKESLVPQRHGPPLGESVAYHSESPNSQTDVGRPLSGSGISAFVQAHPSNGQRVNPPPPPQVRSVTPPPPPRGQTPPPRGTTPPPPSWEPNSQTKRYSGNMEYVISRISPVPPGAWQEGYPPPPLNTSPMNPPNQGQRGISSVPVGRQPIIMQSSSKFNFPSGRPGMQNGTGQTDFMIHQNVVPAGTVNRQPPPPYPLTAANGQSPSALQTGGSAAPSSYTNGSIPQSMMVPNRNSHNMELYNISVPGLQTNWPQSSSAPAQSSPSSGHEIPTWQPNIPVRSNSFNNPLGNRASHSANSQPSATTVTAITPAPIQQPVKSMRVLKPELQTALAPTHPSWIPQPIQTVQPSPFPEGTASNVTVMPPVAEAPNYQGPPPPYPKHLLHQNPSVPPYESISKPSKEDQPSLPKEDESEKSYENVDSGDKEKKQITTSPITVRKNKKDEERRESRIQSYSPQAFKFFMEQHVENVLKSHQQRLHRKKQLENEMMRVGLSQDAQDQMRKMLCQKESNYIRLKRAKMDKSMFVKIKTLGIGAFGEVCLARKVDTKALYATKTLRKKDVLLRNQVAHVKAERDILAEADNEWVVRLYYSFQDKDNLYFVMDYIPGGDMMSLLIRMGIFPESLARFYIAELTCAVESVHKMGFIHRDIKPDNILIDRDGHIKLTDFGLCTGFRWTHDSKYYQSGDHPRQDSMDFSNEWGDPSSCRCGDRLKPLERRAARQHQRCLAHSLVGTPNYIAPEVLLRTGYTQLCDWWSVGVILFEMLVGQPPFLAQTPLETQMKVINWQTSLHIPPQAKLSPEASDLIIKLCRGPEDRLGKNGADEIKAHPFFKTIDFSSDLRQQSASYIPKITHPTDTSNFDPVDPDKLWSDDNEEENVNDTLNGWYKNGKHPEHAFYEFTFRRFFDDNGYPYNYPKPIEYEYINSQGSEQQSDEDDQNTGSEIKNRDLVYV
Description: as §5

EPHB2 = EPHB2 (Homo sapiens, UniProt P29323); assay: Kinase panel; assay type: biochemical; conditions: EPHB2, 1 µM; read-out: residual enzyme activity
Sequence of EPHB2 (P29323 19-1055, species assumed): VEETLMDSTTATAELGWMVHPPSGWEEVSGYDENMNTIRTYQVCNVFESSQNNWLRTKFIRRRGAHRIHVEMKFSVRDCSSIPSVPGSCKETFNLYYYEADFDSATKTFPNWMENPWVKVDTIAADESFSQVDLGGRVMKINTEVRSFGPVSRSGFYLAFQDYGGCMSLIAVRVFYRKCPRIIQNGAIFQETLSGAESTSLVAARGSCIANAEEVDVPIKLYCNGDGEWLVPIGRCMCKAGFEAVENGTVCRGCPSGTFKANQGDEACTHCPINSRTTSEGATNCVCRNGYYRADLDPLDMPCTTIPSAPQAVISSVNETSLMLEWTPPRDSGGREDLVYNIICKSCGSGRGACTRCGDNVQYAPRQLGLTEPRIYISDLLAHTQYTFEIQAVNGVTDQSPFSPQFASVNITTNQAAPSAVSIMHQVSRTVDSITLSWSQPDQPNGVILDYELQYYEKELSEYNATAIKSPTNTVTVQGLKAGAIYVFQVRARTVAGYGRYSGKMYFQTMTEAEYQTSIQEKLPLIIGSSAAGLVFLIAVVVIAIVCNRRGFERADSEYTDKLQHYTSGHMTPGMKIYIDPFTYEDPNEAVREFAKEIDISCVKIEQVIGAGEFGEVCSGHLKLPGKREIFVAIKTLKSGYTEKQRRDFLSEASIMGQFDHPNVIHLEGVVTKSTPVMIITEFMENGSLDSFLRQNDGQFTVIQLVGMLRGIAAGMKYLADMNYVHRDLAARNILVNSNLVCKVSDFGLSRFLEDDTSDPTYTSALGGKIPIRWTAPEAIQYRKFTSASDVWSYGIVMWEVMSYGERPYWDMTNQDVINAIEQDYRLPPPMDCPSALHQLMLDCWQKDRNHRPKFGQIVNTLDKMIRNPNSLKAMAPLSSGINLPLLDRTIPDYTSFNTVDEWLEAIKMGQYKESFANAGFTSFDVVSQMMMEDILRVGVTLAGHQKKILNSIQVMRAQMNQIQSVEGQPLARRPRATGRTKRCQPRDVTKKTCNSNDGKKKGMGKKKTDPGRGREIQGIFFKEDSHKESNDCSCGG
Description: as §5

T1 sequence (Q07912 whole entry): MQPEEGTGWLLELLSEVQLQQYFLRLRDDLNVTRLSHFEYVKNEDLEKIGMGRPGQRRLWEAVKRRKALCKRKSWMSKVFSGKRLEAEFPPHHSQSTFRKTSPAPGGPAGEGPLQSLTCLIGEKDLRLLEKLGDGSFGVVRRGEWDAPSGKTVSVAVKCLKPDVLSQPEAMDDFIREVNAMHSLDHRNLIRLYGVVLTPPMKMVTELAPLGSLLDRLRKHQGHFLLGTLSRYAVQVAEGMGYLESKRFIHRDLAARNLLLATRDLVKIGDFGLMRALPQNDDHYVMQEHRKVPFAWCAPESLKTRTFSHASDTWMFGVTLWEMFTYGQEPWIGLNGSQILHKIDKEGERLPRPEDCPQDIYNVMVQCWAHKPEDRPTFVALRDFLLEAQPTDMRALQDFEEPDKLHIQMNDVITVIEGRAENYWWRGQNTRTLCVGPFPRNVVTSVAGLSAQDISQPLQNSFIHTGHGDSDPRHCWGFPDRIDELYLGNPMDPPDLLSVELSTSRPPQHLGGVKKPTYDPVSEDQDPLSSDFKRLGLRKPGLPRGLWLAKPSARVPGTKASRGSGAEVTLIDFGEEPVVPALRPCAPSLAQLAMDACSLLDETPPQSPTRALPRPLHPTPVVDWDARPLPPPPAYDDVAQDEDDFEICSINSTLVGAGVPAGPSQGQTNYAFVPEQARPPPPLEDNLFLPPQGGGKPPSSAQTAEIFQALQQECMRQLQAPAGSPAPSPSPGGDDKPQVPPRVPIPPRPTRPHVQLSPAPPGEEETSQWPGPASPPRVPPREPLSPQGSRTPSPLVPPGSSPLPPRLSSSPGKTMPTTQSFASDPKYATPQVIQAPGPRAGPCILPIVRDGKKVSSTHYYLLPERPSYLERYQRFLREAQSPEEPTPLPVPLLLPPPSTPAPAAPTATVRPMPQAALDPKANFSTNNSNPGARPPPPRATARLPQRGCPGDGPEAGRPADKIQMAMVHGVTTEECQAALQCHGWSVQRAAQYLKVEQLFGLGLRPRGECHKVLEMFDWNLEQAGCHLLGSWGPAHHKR

**Q.** Which results are given for `Cc1cn(-c2cc(C(=O)Nc3ccc(C)c(N4Cc5cnc(NC6CC6)nc5C5(CC5)C4=O)c3)cc(C(F)(F)F)c2)cn1` [Compound 8, N-(3-(2'-(cyclopropylamino)-7'-oxo-5'H-spiro[cyclopropane-1,8'-pyrido[4,3-d]pyrimidine]-6'(7'H)-yl)-4-methylphenyl)-3-(4-methyl-1H-imidazol-1-yl)-5-(trifluoromethyl)benzamide]?
**A.** IC50 (ACK1): < 10 nM; IC50 (BMX): < 10 nM; IC50 (Src): 10 to 100 nM; GI50 (SW620): 1000 to 5000 nM; GI50 (DLD-1): 1000 to 5000 nM; GI50 (A172): < 1000 nM; GI50 (SW480): 1000 to 5000 nM; GI50 (MIA-Paca-2): < 1000 nM; GI50 (HT-29): > 10000 nM; GI50 (HCT-116): < 1000 nM; GI50 (MDA-MB-231): 1000 to 5000 nM; GI50 (AsPC-1): 1000 to 5000 nM; GI50 (SKOV3): 1000 to 5000 nM; GI50 (HCI-H460): 1000 to 5000 nM; GI50 (A549): > 10000 nM; remaining activity at 1 µM (TRKA): ≤ 40%; remaining activity at 1 µM (STK25/YSK1): > 40%; remaining activity at 1 µM (RSK3): > 40%; remaining activity at 1 µM (LATS1): > 40%; remaining activity at 1 µM (EPHB2): ≤ 40%

**Q.** How did the IC50 (ACK1) turn out when `Cc1ccc(Nc2ncc3c(n2)C2(CC2)C(=O)N(c2cc(NC(=O)c4cccc(C(F)(F)F)c4)ccc2C)C3)cn1` [Compound 51, N-(4-methyl-3-(2'-((6-methylpyridin-3-yl)amino)-7'-oxo-5'H-spiro[cyclopropane-1,8'-pyrido[4,3-d]pyrimidine]-6'(7'H)-yl)phenyl)-3-(trifluoromethyl)benzamide] was run?
**A.** 10 to 100 nM

**Q.** And the IC50 (BMX)?
**A.** < 10 nM

**Q.** And the IC50 (Src)?
**A.** < 10 nM

**Q.** And the GI50 (SW620)?
**A.** 1000 to 5000 nM

**Q.** What about the GI50 (DLD-1) of the same compound?
**A.** 1000 to 5000 nM

**Q.** What about the GI50 (A172) of the same compound?
**A.** < 1000 nM

**Q.** What about the GI50 (SW480) of the same compound?
**A.** < 1000 nM

**Q.** What about the GI50 (MIA-Paca-2) of the same compound?
**A.** < 1000 nM

**Q.** What about the GI50 (HT-29) of the same compound?
**A.** 1000 to 5000 nM

**Q.** What about the GI50 (HCT-116) of the same compound?
**A.** < 1000 nM

**Q.** And the GI50 (MDA-MB-231)?
**A.** < 1000 nM

**Q.** What about the GI50 (AsPC-1) of the same compound?
**A.** < 1000 nM

**Q.** And the GI50 (SKOV3)?
**A.** < 1000 nM

**Q.** What about the GI50 (HCI-H460) of the same compound?
**A.** < 1000 nM

**Q.** What about the GI50 (A549) of the same compound?
**A.** 1000 to 5000 nM

**Q.** And the remaining activity at 1 µM (TRKA)?
**A.** ≤ 40%

**Q.** What about the remaining activity at 1 µM (STK25/YSK1) of the same compound?
**A.** > 40%

**Q.** And the remaining activity at 1 µM (RSK3)?
**A.** > 40%

**Q.** What about the remaining activity at 1 µM (LATS1) of the same compound?
**A.** > 40%

**Q.** What about the remaining activity at 1 µM (EPHB2) of the same compound?
**A.** ≤ 40%
